Data taken from ChEMBL document CHEMBL4196088, “Induction of cell killing and autophagy by amphiphilic pyrrolidine derivatives on human pancreatic cancer cells” (Eur J Med Chem, 2018).
Activity calls are given as the source filed them. The rule behind the calls is not given here.

Tests used:
[1] = tested on: PANC-1; assay: Induction of apoptosis in human PANC1 cells assessed as accumulation at sub-G0/G1 phase at 20 uM after 48 hrs by propidium iodide staining based flow cytometry (reference value: 0.2 to 2.9%); type: functional
[2] = tested on: MIA PaCa-2; assay: Induction of apoptosis in human MIAPaCa2 cells assessed as live cells at 20 uM after 48 hrs by Annexin V-FITC/propidium iodide staining based flow cytometry (reference value: 86.79%); type: functional
[3] = tested on: PANC-1; assay: Induction of apoptosis in human PANC1 cells assessed as accumulation at sub-G0/G1 phase at 20 uM after 72 hrs by propidium iodide staining based flow cytometry (reference value: 1.6 to 3.2%); type: functional
[4] = tested on: MIA PaCa-2; assay: Induction of apoptosis in human MIAPaCa2 cells assessed as necrotic cells at 20 uM after 48 hrs by Annexin V-FITC/propidium iodide staining based flow cytometry (reference value: 0.63%); type: functional
[5] = tested on: PANC-1; assay: Induction of apoptosis in human PANC1 cells assessed as accumulation at sub-G0/G1 phase at 10 uM after 72 hrs by propidium iodide staining based flow cytometry (reference value: 1.6 to 3.2%); type: functional
[6] = tested on: MIA PaCa-2; assay: Induction of apoptosis in human MIAPaCa2 cells assessed as early apoptotic cells at 20 uM after 48 hrs by Annexin V-FITC/propidium iodide staining based flow cytometry (reference value: 5.16%); type: functional
[7] = tested on: PANC-1; assay: Induction of apoptosis in human PANC1 cells assessed as accumulation at sub-G0/G1 phase at 10 uM after 24 hrs by propidium iodide staining based flow cytometry (reference value: 0.6 to 0.7%); type: functional
[8] = tested on: MIA PaCa-2; assay: Induction of apoptosis in human MIAPaCa2 cells assessed as necrotic cells at 20 uM after 24 hrs by Annexin V-FITC/propidium iodide staining based flow cytometry (reference value: 0.63%); type: functional
[9] = tested on: MIA PaCa-2; assay: Induction of apoptosis in human MIAPaCa2 cells assessed as early apoptotic cells at 20 uM after 24 hrs by Annexin V-FITC/propidium iodide staining based flow cytometry (reference value: 5.16%); type: functional
[10] = tested on: MIA PaCa-2; assay: Induction of autophagy in human MIAPaCa2 cells assessed as increase in LC3-2 protein expression at 20 uM after 24 to 48 hrs by Western blot analysis; type: functional, cell-based
[11] = tested on: MIA PaCa-2; assay: Induction of apoptosis in human MIAPaCa2 cells assessed as live cells at 20 uM after 24 hrs by Annexin V-FITC/propidium iodide staining based flow cytometry (reference value: 86.79%); type: functional
[12] = tested on: PK9; assay: Induction of apoptosis in human PK9 cells at 5 to 40 uM after 24 to 72 hrs by Annexin V/7-AAD staining based flow cytometry; type: functional, cell-based
[13] = tested on: MIA PaCa-2; assay: Induction of apoptosis in human MIAPaCa2 cells assessed as increase in cleaved PARP protein expression at 20 uM after 24 to 48 hrs by Western blot analysis; type: functional, cell-based
[14] = tested on: PANC-1; assay: Induction of apoptosis in human PANC1 cells assessed as accumulation at sub-G0/G1 phase at 20 uM after 24 hrs by propidium iodide staining based flow cytometry (reference value: 0.6 to 0.7%); type: functional
[15] = tested on: BXPC-3; assay: Growth inhibition of human BxPC3 cells after 72 hrs by XTT assay; type: functional, cell-based; conditions: BXPC-3, 72 h
[16] = tested on: PANC-1; assay: Induction of apoptosis in human PANC1 cells assessed as accumulation at sub-G0/G1 phase at 10 uM after 48 hrs by propidium iodide staining based flow cytometry (reference value: 0.2 to 2.9%); type: functional
[17] = tested on: BXPC-3; assay: Induction of apoptosis in human BxPC3 cells assessed as increase in cleaved PARP protein expression at 20 uM after 24 to 48 hrs by Western blot analysis; type: functional, cell-based
[18] = tested on: Fibroblast; assay: Induction of apoptosis in human primary fibroblasts at 5 to 40 uM after 24 to 72 hrs by Annexin V/7-AAD staining based flow cytometry; type: cell-based
[19] = tested on: BXPC-3; assay: Induction of autophagy in human BxPC3 cells assessed as increase in LC3-2 protein expression at 20 uM after 24 to 48 hrs by Western blot analysis; type: functional, cell-based
[20] = tested on: MIA PaCa-2; assay: Induction of apoptosis in human MIAPaCa2 cells assessed as late apoptotic cells at 20 uM after 24 hrs by Annexin V-FITC/propidium iodide staining based flow cytometry (reference value: 7.4%); type: functional
[21] = tested on: PANC-1; assay: Growth inhibition of human PANC1 cells after 72 hrs by XTT assay; type: functional, cell-based; conditions: PANC-1, 72 h
[22] = Induction of apoptosis in HPNE cells at 5 to 40 uM after 24 to 72 hrs by Annexin V/7-AAD staining based flow cytometry; type: cell-based; conditions: human
[23] = tested on: MIA PaCa-2; assay: Induction of apoptosis in human MIAPaCa2 cells assessed as late apoptotic cells at 20 uM after 48 hrs by Annexin V-FITC/propidium iodide staining based flow cytometry (reference value: 7.4%); type: functional
[24] = tested on: PK9; assay: Antiproliferative activity against human PK9 cells; type: functional, cell-based
[25] = tested on: MIA PaCa-2; assay: Antiproliferative activity against human MIAPaCa2 cells; type: functional, cell-based
[26] = tested on: Jurkat; assay: Growth inhibition of human Jurkat cells after 72 hrs; type: functional, cell-based
[27] = tested on: HeLa; assay: Growth inhibition of human HeLa cells after 72 hrs; type: functional, cell-based
[28] = tested on: NCI-H460; assay: Growth inhibition of human NCI-H460 cells after 72 hrs; type: functional, cell-based; conditions: NCI-H460, 72 h
[29] = tested on: ACHN; assay: Growth inhibition of human ACHN cells after 72 hrs; type: functional, cell-based

In the case of CCCCCCCC/C=C\CCCCCCCCOC[C@@H]1CCCN1C(=O)[C@@H]1CCCN1.Cl, the Activity [1] is reported as 21.3%, the Activity [2] is reported as 81.02% and the Activity [3] is reported as 74.9%. It also gave an Activity [4] of 0.16%, an Activity [5] of 56.3% and an Activity [6] of 10.86%. For the same molecule, the Activity [7] was 2.6%, the Activity [8] was 1.1% and the Activity [9] was 6.78%. For the same molecule, the Activity [10] was “inactive”, the Activity [11] was 83.47% and the Activity [12] was “Active”. The Activity [13] was “inactive”, the Activity [14] was 4.4% and the IC50 [15] was 4.3 µM. The Activity [16] was 12.3%, the Activity [17] was “inactive” and the Activity [18] was “Toxic”. For the same molecule, the Activity [19] was “inactive”, the Activity [20] was 8.64% and the IC50 [21] was 5 µM. For the same molecule, the Activity [22] was “Toxic” and the Activity [23] was 7.94%.
With CCCCCCCCCCCCc1cn(C[C@@H]2N[C@@H](C)[C@@H](O)[C@H]2O)nn1 the IC50 [24] was 14 to 45 µM and the IC50 [25] was 14 to 45 µM.
In the case of CCCCCCCC/C=C\CCCCCCCCOC[C@H]1NC[C@H](O)[C@@H]1O, the IC50 [26] is reported as 7 µM, the IC50 [27] is reported as 8 µM and the IC50 [28] is reported as 9 µM. It also gave an IC50 [29] of 3 µM.
Work on CCCCCCCC/C=C\CCCCCCCCOC[C@@H]1CCCN1C(=O)CN.Cl yielded an Activity [1] of 7.9%, an Activity [3] of 50.3% and an Activity [5] of 52.9%. For the same molecule, the Activity [7] was 2.4%, the Activity [12] was “Active” and the Activity [14] was 2.2%. The IC50 [15] was 5.3 µM, the Activity [16] was 13.7% and the Activity [18] was “Toxic”. For the same molecule, the IC50 [21] was 7.7 µM and the Activity [22] was “Toxic”.
In the case of CCCCCCCCCCCCc1cn(C[C@H]2NC[C@H](O)[C@@H]2O)nn1, the IC50 [24] is reported as 14 to 45 µM and the IC50 [25] is reported as 14 to 45 µM.
CCCCCCCCCCCCc1cn(CC[C@H]2NC[C@@H](O)[C@H]2O)nn1 gave an IC50 [24] of 14 to 45 µM and an IC50 [25] of 14 to 45 µM.
